Results published in patent US8809344B2, “Compounds, compositions, and methods for control of hepatitis C viral infections” (priority 2008, dated 2014).

Columns and labels:
Format in all cases: cell-based
[1] = Cell viability (CC50) in the Clone VI RT-PCR experiment; details: human, Experiment 1, genotype 1b
Description: Inhibition of HCV replication by compound AP0080978 (enantiomer 2 from Example 1) was also assayed by exposing cells harboring either HCV genotype 1a, HCV genotype 1b, HCV genotype 2a replicons. […] Final DMSO percentage was 1% in a total volume of 1 ml. After a 72 hour treatment period, total RNA was extracted, quantified via RiboGreen™ assay (Invitrogen-Molecular Probes, Eugene, Oreg., USA), and equivalent amounts of RNA were subjected to quantitative RT-PCR to quantify HCV RNA levels. […] For each replicate culture, HCV RNA levels were measured by blot hybridization and normalized to β-actin RNA levels. Cytotoxicity was measured using an established neutral red dye uptake assay (Korba and Gerin (1992) Antiviral Res 19:55; Okuse et al (2005) Antiviral Res 65: 23). […] Activity and toxicity against genotype 2a was evaluated in Huh7 cells harboring a stable hRluc-containing subgenomic genotype 2a replicon containing sequence from both J6 and JFH1 strains. […]
Additional compounds of formula (I) shown in FIG. 1 were also shown to inhibit HCV RNA replication. The effects of various compounds of formula (I) on HCV RNA replicon levels were determined by measuring HCV replicon RNA levels in cells treated with various concentrations of the compounds. […] Total RNA was extracted 72 hours later, and HCV and GAPDH RNA levels were quantified via quantitative RT-PCR. […]

[2] = tested on: subgenomic genotype 2a replicon (J6 and JFH1 strains); test: Genotype 2a hRluc replicon assay in Huh7 cells, Renilla luciferase readout; details: Hepatitis C virus, Huh-7, 48 h
Description: Inhibition of HCV replication by compound AP0080978 (enantiomer 2 from Example 1) was also assayed by exposing cells harboring either HCV genotype 1a, HCV genotype 1b, HCV genotype 2a replicons. […] Final DMSO percentage was 1% in a total volume of 1 ml. After a 72 hour treatment period, total RNA was extracted, quantified via RiboGreen™ assay (Invitrogen-Molecular Probes, Eugene, Oreg., USA), and equivalent amounts of RNA were subjected to quantitative RT-PCR to quantify HCV RNA levels. Activity against genotype 1b was re-confirmed using Clone II cells (U.S. Pat. No. 7,049,428) that contain a stable subgenomic replicon (Con1 strain) with a Arg 1164 Gly adaptive mutation that is distinct from the Ser 1179 Ile adaptive mutation present in Clone VI cells. In this assay, cells were seeded into 96-well plates and treated in quadruplicate with varying concentration of compounds for 72 hours. For each replicate culture, HCV RNA levels were measured by blot hybridization and normalized to β-actin RNA levels. Cytotoxicity was measured using an established neutral red dye uptake assay (Korba and Gerin (1992) Antiviral Res 19:55; Okuse et al (2005) Antiviral Res 65: 23). […] Activity and toxicity against genotype 2a was evaluated in Huh7 cells harboring a stable hRluc-containing subgenomic genotype 2a replicon containing sequence from both J6 and JFH1 strains. […]

[3] = tested on: genotype 1b (Con1 strain) replicon with NS4B F1809L mutation; test: F1809L mutant reporter replicon IVT RNA in Huh7.5 cells; details: Hepatitis C virus
Text: To identify nucleotide changes that confer resistance to 80978, replicon RNA was reverse transcribed and amplified from total RNA extracted from 80978-resistant and control Clone A cells. […] One silent mutation at amino acid 1771 was also observed. Each mutation was introduced independently into a stable genotype 1b (Con1 strain) subgenomic reporter replicon plasmid via site-directed mutagenesis. […] The sequence of the wild type NS4B encoding sequence is provided as SEQ ID NO:1, the sequence of the mutated NS4B nucleotide sequence encoding the F1809V mutation is provided as SEQ ID NO:3, and the sequence of the mutated NS4B nucleotide sequence encoding the F1809L mutation is provided as SEQ ID NO:5. The sequence of the wild type NS4B protein is provided as SEQ ID NO:2, the sequence of the mutated NS4B protein with the F1809V mutation is provided as SEQ ID NO:4, and the sequence of the mutated NS4B nucleotide sequence encoding the F1809L mutation is provided as SEQ ID NO:6. […] A differential response was observed between cells electroporated with different replicon RNAs.

[4] = tested on: all other chimeric replicons and the genotype 2a parental replicon; test: Other chimeric replicons and genotype 2a parental replicon in Huh7.5 cells; details: Hepatitis C virus
Text: That NS4B is the target of 80978 was confirmed by a complementary approach. The differential response to 80978 by HCV genotype 1b and 2a replicons allowed the use of chimeric replicons to narrow down the region of the HCV genotype 1b NS4B coding region that confers sensitivity to 80978. The nucleotide sequence of the wild type HCV genotype 2a NS4B is provided as SEQ ID NO: 7 and the wild type HCV genotype 2a NS4B protein sequence is provided as SEQ ID NO:8. Using a plasmid containing an 80978-resistant stable HCV genotype 2a subgenomic reporter replicon cDNA, six replacement, or chimeric constructs were made, where the regions encoding the following amino acids of NS4B were replaced with the regions encoding the corresponding amino acids of NS4B from HCV genotype 1b: (i) 7-254, (ii) 7-52, (iii) 53-254, (iv) 219-254, (v) 7-52 and 219-254, and (vi) 53 to 218. The full-length NS4B protein is 261 amino acids in length and is provided as SEQ ID NO:2. Thus, if any of these segments of NS4B from genotype 1b are sufficient to confer 80978-sensitivity to a genotype 2a HCV replicon, it will render the chimeric genotype 1b/genotype 2a replicon sensitive to the compound.
Response to 80978 was measured initially in unselected cells. […] All of the chimeric and wild type control constructs were responsive to Cyclosporin A (CsA).

[5] = tested on: genotype 2a replicon with the L1809F mutation; test: Genotype 2a replicon with L1809F mutation; details: Hepatitis C virus
Description: Since leucine at amino acid 1809 in the genotype 1b replicon was mutated from a phenylalanine residue to a leucine or a valine residue to confer resistance to 80978, and the residue at the corresponding position in the parental genotype 2a replicon is leucine, mutagenesis was carried out to determine whether a phenylalanine at this position in the genotype 2a replicon was sufficient to confer sensitivity to 80978.

## O=C(NCc1cccs1)c1nn2c(c1Cl)N[C@H](c1ccco1)C[C@@H]2C(F)(F)F (single isomer, unassigned) [Compound 80978]
[1]
  CC50 at 72 h: > 100 µM
[2]
  EC50: > 25 µM
[3]
  EC50: > 22.5 µM
[4]
  EC50: > 20 µM
[5]
  EC50: > 25 µM
